Activity calls are given as the source filed them. The rule behind the calls is not given here.
Key:
Fusarium verticillioides [1] = assay: Growth inhibition of Fusarium verticillioides assessed as inhibition of mycelial growth up to 160 g/l incubated for 15 min followed by compound washout measured after 7 days in absence of surfactant APSA 80; format: functional
Colletotrichum musae [2] = assay: Growth inhibition of Colletotrichum musae assessed as inhibition of mycelial growth up to 160 g/l incubated for 15 min followed by compound washout measured after 7 days in absence of surfactant APSA 80; format: functional
Thielaviopsis paradoxa [3] = assay: Growth inhibition of Ceratocystis paradoxa assessed as inhibition of mycelial growth up to 160 g/l incubated for 15 min followed by compound washout measured after 7 days in absence of surfactant APSA 80; format: functional, organism-based
Thielaviopsis paradoxa [4] = assay: Growth inhibition of Ceratocystis paradoxa assessed as inhibition of mycelial growth up to 160 g/l incubated for 15 min followed by compound washout measured after 7 days in presence of surfactant APSA 80; format: functional
Lasiodiplodia theobromae [5] = assay: Growth inhibition of Lasiodiplodia theobromae assessed as inhibition of mycelial growth up to 160 g/l incubated for 15 min followed by compound washout measured after 7 days in absence of surfactant APSA 80; format: functional, organism-based
Fusarium verticillioides [6] = assay: Antifungal activity against Fusarium verticillioides infected Cavendish banana fruit assessed as reduction in crown rot incubated for 15 min followed by compound washout measured after 3 weeks in presence of surfactant APSA 80 relative to control; format: functional; parameters: concentration or dose not given beside the values; settings: pooled result: one value given for 4 cell lines, strains, targets or settings
Fusarium verticillioides [7] = assay: Antifungal activity against Fusarium verticillioides infected Cavendish banana fruit assessed as reduction in crown rot incubated for 15 min followed by compound washout measured after 3 weeks in absence of surfactant APSA 80 relative to control; format: functional; parameters: concentration or dose not given beside the values; settings: pooled result: one value given for 4 cell lines, strains, targets or settings
Fusarium verticillioides [8] = assay: Antifungal activity against Fusarium verticillioides infected Cavendish banana fruit assessed as reduction in crown rot incubated for 15 min followed by compound washout measured after 2 weeks in presence of surfactant APSA 80 relative to control; format: functional; parameters: concentration or dose not given beside the values
Colletotrichum musae [9] = assay: Antifungal activity against Colletotrichum musae infected Cavendish banana fruit assessed as reduction in crown rot incubated for 15 min followed by compound washout measured after 2 weeks in presence of surfactant APSA 80 relative to control; format: functional; parameters: concentration or dose not given beside the values
Thielaviopsis paradoxa [10] = assay: Antifungal activity against Ceratocystis paradoxa infected Cavendish banana fruit assessed as reduction in crown rot incubated for 15 min followed by compound washout measured after 2 weeks in presence of surfactant APSA 80 relative to control; format: functional; parameters: concentration or dose not given beside the values
Lasiodiplodia theobromae [11] = assay: Antifungal activity against Lasiodiplodia theobromae infected Cavendish banana fruit assessed as reduction in crown rot incubated for 15 min followed by compound washout measured after 2 weeks in presence of surfactant APSA 80 relative to control; format: functional; parameters: concentration or dose not given beside the values
Fusarium verticillioides [12] = assay: Antifungal activity against Fusarium verticillioides infected Cavendish banana fruit assessed as reduction in crown rot incubated for 15 min followed by compound washout measured after 2 weeks in absence of surfactant APSA 80 relative to control; format: functional; parameters: concentration or dose not given beside the values
Colletotrichum musae [13] = assay: Antifungal activity against Colletotrichum musae infected Cavendish banana fruit assessed as reduction in crown rot incubated for 15 min followed by compound washout measured after 2 weeks in absence of surfactant APSA 80 relative to control; format: functional; parameters: concentration or dose not given beside the values
Thielaviopsis paradoxa [14] = assay: Antifungal activity against Ceratocystis paradoxa infected Cavendish banana fruit assessed as reduction in crown rot incubated for 15 min followed by compound washout measured after 2 weeks in absence of surfactant APSA 80 relative to control; format: functional; parameters: concentration or dose not given beside the values
Lasiodiplodia theobromae [15] = assay: Antifungal activity against Lasiodiplodia theobromae infected Cavendish banana fruit assessed as reduction in crown rot incubated for 15 min followed by compound washout measured after 2 weeks in absence of surfactant APSA 80 relative to control; format: functional; parameters: concentration or dose not given beside the values
Fusarium verticillioides [16] = assay: Antifungal activity against Fusarium verticillioides infected Cavendish banana fruit assessed as reduction in crown rot incubated for 15 min followed by compound washout measured after 1 week in presence of surfactant APSA 80 relative to control; format: functional; parameters: concentration or dose not given beside the values
Colletotrichum musae [17] = assay: Antifungal activity against Colletotrichum musae infected Cavendish banana fruit assessed as reduction in crown rot incubated for 15 min followed by compound washout measured after 1 week in presence of surfactant APSA 80 relative to control; format: functional; parameters: concentration or dose not given beside the values
Thielaviopsis paradoxa [18] = assay: Antifungal activity against Ceratocystis paradoxa infected Cavendish banana fruit assessed as reduction in crown rot incubated for 15 min followed by compound washout measured after 1 week in presence of surfactant APSA 80 relative to control; format: functional; parameters: concentration or dose not given beside the values
Lasiodiplodia theobromae [19] = assay: Antifungal activity against Lasiodiplodia theobromae infected Cavendish banana fruit assessed as reduction in crown rot incubated for 15 min followed by compound washout measured after 1 week in presence of surfactant APSA 80 relative to control; format: functional; parameters: concentration or dose not given beside the values
Fusarium verticillioides [20] = assay: Antifungal activity against Fusarium verticillioides infected Cavendish banana fruit assessed as reduction in crown rot incubated for 15 min followed by compound washout measured after 1 week in absence of surfactant APSA 80 relative to control; format: functional; parameters: concentration or dose not given beside the values
Colletotrichum musae [21] = assay: Antifungal activity against Colletotrichum musae infected Cavendish banana fruit assessed as reduction in crown rot incubated for 15 min followed by compound washout measured after 1 week in absence of surfactant APSA 80 relative to control; format: functional; parameters: concentration or dose not given beside the values
Thielaviopsis paradoxa [22] = assay: Antifungal activity against Ceratocystis paradoxa infected Cavendish banana fruit assessed as reduction in crown rot incubated for 15 min followed by compound washout measured after 1 week in absence of surfactant APSA 80 relative to control; format: functional; parameters: concentration or dose not given beside the values
Lasiodiplodia theobromae [23] = assay: Antifungal activity against Lasiodiplodia theobromae infected Cavendish banana fruit assessed as reduction in crown rot incubated for 15 min followed by compound washout measured after 1 week in absence of surfactant APSA 80 relative to control; format: functional; parameters: concentration or dose not given beside the values
Fusarium verticillioides [24] = assay: Antifungal activity against Fusarium verticillioides assessed as reduction in colony diameter at 10 to 160 g/l incubated for 15 min followed by compound washout measured after 7 days in absence of surfactant APSA 80 relative to control; format: functional; parameters: scale not given: the % may be the effect or the level left
Colletotrichum musae [25] = assay: Antifungal activity against Colletotrichum musae assessed as reduction in colony diameter at 10 to 160 g/l incubated for 15 min followed by compound washout measured after 7 days in absence of surfactant APSA 80 relative to control; format: functional; parameters: scale not given: the % may be the effect or the level left
Thielaviopsis paradoxa [26] = assay: Antifungal activity against Ceratocystis paradoxa assessed as reduction in colony diameter at 10 to 160 g/l incubated for 15 min followed by compound washout measured after 7 days in absence of surfactant APSA 80 relative to control; format: functional; parameters: scale not given: the % may be the effect or the level left
Lasiodiplodia theobromae [27] = assay: Antifungal activity against Lasiodiplodia theobromae assessed as reduction in colony diameter at 10 to 160 g/l incubated for 15 min followed by compound washout measured after 7 days in absence of surfactant APSA 80 relative to control; format: functional; parameters: scale not given: the % may be the effect or the level left
Fusarium verticillioides [28] = assay: Antifungal activity against Fusarium verticillioides assessed as reduction in colony diameter at 10 to 160 g/l incubated for 15 min followed by compound washout measured after 7 days in presence of surfactant APSA 80 relative to control; format: functional; parameters: scale not given: the % may be the effect or the level left
Colletotrichum musae [29] = assay: Antifungal activity against Colletotrichum musae assessed as reduction in colony diameter at 10 to 160 g/l incubated for 15 min followed by compound washout measured after 7 days in presence of surfactant APSA 80 relative to control; format: functional; parameters: scale not given: the % may be the effect or the level left
Thielaviopsis paradoxa [30] = assay: Antifungal activity against Ceratocystis paradoxa assessed as reduction in colony diameter at 10 to 160 g/l incubated for 15 min followed by compound washout measured after 7 days in presence of surfactant APSA 80 relative to control; format: functional; parameters: scale not given: the % may be the effect or the level left
Lasiodiplodia theobromae [31] = assay: Antifungal activity against Lasiodiplodia theobromae assessed as reduction in colony diameter at 10 to 160 g/l incubated for 15 min followed by compound washout measured after 7 days in presence of surfactant APSA 80 relative to control; format: functional; parameters: scale not given: the % may be the effect or the level left
Thielaviopsis paradoxa [32] = assay: Antifungal activity against Ceratocystis paradoxa assessed as inhibition of conidium germination at 5 g/l incubated for 15 min followed by compound washout measured after 2 days by microscopic analysis in absence of surfactant APSA 80; format: functional, organism-based

`[Cl-].[Na+]` [SODIUM CHLORIDE] was tested, and the Activity (Fusarium verticillioides [1]) was “inactive”, the Activity (Colletotrichum musae [2]) was “inactive” and the Activity (Thielaviopsis paradoxa [3]) was “inactive”. For the same compound, the Activity (Thielaviopsis paradoxa [4]) was “inactive”, the Activity (Lasiodiplodia theobromae [5]) was “inactive” and the Activity (Fusarium verticillioides [6]) was 0%. It also gave an Activity (Fusarium verticillioides [7]) of -5%, an Activity (Fusarium verticillioides [8]) of 10% and an Activity (Colletotrichum musae [9]) of 10%. It also gave an Activity (Thielaviopsis paradoxa [10]) of 10%, an Activity (Lasiodiplodia theobromae [11]) of 10% and an Activity (Fusarium verticillioides [12]) of 0%. The Activity (Colletotrichum musae [13]) was 0%, the Activity (Thielaviopsis paradoxa [14]) was 0% and the Activity (Lasiodiplodia theobromae [15]) was 0%. The Activity (Fusarium verticillioides [16]) was 0%, the Activity (Colletotrichum musae [17]) was 0% and the Activity (Thielaviopsis paradoxa [18]) was 0%. The Activity (Lasiodiplodia theobromae [19]) was 0%, the Activity (Fusarium verticillioides [20]) was 0% and the Activity (Colletotrichum musae [21]) was 0%. It also gave an Activity (Thielaviopsis paradoxa [22]) of 0%, an Activity (Lasiodiplodia theobromae [23]) of 0% and an Activity (Fusarium verticillioides [24]) of 83%. It also gave an Activity (Colletotrichum musae [25]) of 83%, an Activity (Thielaviopsis paradoxa [26]) of 71% and an Activity (Lasiodiplodia theobromae [27]) of 90%. It also gave an Activity (Fusarium verticillioides [28]) of 79%, an Activity (Colletotrichum musae [29]) of 93% and an Activity (Thielaviopsis paradoxa [30]) of 84%. The Activity (Lasiodiplodia theobromae [31]) was 94%.
With `[Ca+2].[Cl-].[Cl-]` [CALCIUM CHLORIDE] the inhibition (Thielaviopsis paradoxa [32]) was “Active”, the Activity (Fusarium verticillioides [1]) was “inactive” and the Activity (Colletotrichum musae [2]) was “inactive”. The Activity (Thielaviopsis paradoxa [3]) was “inactive”, the Activity (Thielaviopsis paradoxa [4]) was “inactive” and the Activity (Lasiodiplodia theobromae [5]) was “inactive”. The Activity (Fusarium verticillioides [6]) was 58%, the Activity (Fusarium verticillioides [7]) was 42% and the Activity (Fusarium verticillioides [8]) was 50%. The Activity (Colletotrichum musae [9]) was 50%, the Activity (Thielaviopsis paradoxa [10]) was 50% and the Activity (Lasiodiplodia theobromae [11]) was 50%. For the same compound, the Activity (Fusarium verticillioides [12]) was 0%, the Activity (Colletotrichum musae [13]) was 0% and the Activity (Thielaviopsis paradoxa [14]) was 0%. The Activity (Lasiodiplodia theobromae [15]) was 0%, the Activity (Fusarium verticillioides [16]) was 0% and the Activity (Colletotrichum musae [17]) was 0%. The Activity (Thielaviopsis paradoxa [18]) was 0%, the Activity (Lasiodiplodia theobromae [19]) was 0% and the Activity (Fusarium verticillioides [20]) was 0%. It also gave an Activity (Colletotrichum musae [21]) of 0%, an Activity (Thielaviopsis paradoxa [22]) of 0% and an Activity (Lasiodiplodia theobromae [23]) of 0%. The Activity (Fusarium verticillioides [24]) was 5%, the Activity (Colletotrichum musae [25]) was 0% and the Activity (Thielaviopsis paradoxa [26]) was 28%. For the same compound, the Activity (Lasiodiplodia theobromae [27]) was 35%, the Activity (Fusarium verticillioides [28]) was 53% and the Activity (Colletotrichum musae [29]) was 62%. It also gave an Activity (Thielaviopsis paradoxa [30]) of 56% and an Activity (Lasiodiplodia theobromae [31]) of 87%.
`[Na+].[O-]Cl` [SODIUM HYPOCHLORITE] was tested, and the inhibition (Thielaviopsis paradoxa [32]) was “Active”, the Activity (Fusarium verticillioides [1]) was 50 g/L and the Activity (Colletotrichum musae [2]) was 30 g/L. For the same compound, the Activity (Thielaviopsis paradoxa [4]) was 90 g/L, the Activity (Fusarium verticillioides [6]) was 47% and the Activity (Fusarium verticillioides [7]) was 61%. It also gave an Activity (Fusarium verticillioides [8]) of 50%, an Activity (Colletotrichum musae [9]) of 50% and an Activity (Thielaviopsis paradoxa [10]) of 50%. It also gave an Activity (Lasiodiplodia theobromae [11]) of 50%, an Activity (Fusarium verticillioides [12]) of 50% and an Activity (Colletotrichum musae [13]) of 50%. The Activity (Thielaviopsis paradoxa [14]) was 50%, the Activity (Lasiodiplodia theobromae [15]) was 50% and the Activity (Fusarium verticillioides [16]) was 0%. It also gave an Activity (Colletotrichum musae [17]) of 0%, an Activity (Thielaviopsis paradoxa [18]) of 0% and an Activity (Lasiodiplodia theobromae [19]) of 0%. It also gave an Activity (Fusarium verticillioides [20]) of 0%, an Activity (Colletotrichum musae [21]) of 0% and an Activity (Thielaviopsis paradoxa [22]) of 0%. The Activity (Lasiodiplodia theobromae [23]) was 0%, the Activity (Fusarium verticillioides [24]) was 0% and the Activity (Colletotrichum musae [25]) was 13%. It also gave an Activity (Thielaviopsis paradoxa [26]) of 18%, an Activity (Lasiodiplodia theobromae [27]) of 40% and an Activity (Fusarium verticillioides [28]) of 51%. It also gave an Activity (Colletotrichum musae [29]) of 78%, an Activity (Thielaviopsis paradoxa [30]) of 67% and an Activity (Lasiodiplodia theobromae [31]) of 92%.

— ChEMBL document CHEMBL3044541, “Control of crown rot-causing fungal pathogens of banana by inorganic salts and a surfactant” (Crop Prot, 2007)
